# Literature values as cited in US20220289809A1, “USE OF RELAXIN TO TREAT ATRIAL FIBRILLATION” (University of Pittsburgh - Of the Commonwealth System of …, priority 2012, published 2022).
# Tested on: CHF canine model
compound,measurement,value
Cc1ccc(=O)n(-c2ccccc2)c1 [Pirfenidone],atrial CV,did not generate a significantly greater increase in atrial CV
same,fibrosis and AF,reverse fibrosis and attenuate AF
